Results on four compounds are retold here after US20090247770A1, “PROCESS FOR MAKING LACTAM TACHYKININ RECEPTOR ANTAGONISTS” (priority 2006, published 2009).

A short description of data set [1]: Relative thermodynamic stability of crystal forms. It counts as physicochemical. Particulars: comparison of besylate crystal forms. The text has this:
The benzyloxycarbonyl (Cbz) group of 16 was cleaved to give 1 by a noble transition metal, such as Pd/C, […], Pt/C, catalyzed hydrogenation in an alcoholic solvent such as methanol, ethanol, or the like, or by acidic solvolysis with a hydrogen halide such as HCl, HBr, or HI or an equivalent such as combination of a metal or an ammonium halide and an acid trifluoroacetic acid, methanesulfonic acid, or the like in organic solvent such as acetonitrile, toluene, or acetic acid at a temperature from about 0° C. to about 60° C. If this deprotection of Cbz group was carried out under acidic condition, 1 could be obtained from 14a,b or 15a,b in a one-pot manner. Benzyl halide, which was a side product of deprotection of Cbz group, was easily removed from the reaction mixture by back-extraction with heptane. Free base of 1 was difficult to be extracted from the aqueous layer to organic layer because of its amphipathic physical property. […] Crude free base was purified by crystallization as a benzenesulfonate salt from IPA-IPAc-heptane solvent system. The benzenesulfonate salt has two crystal forms Form I or II. […] The benzenesulfonate salt can be recrystallized from acetonitrile and alcohol such as methanol, ethanol, or isopropanol, if necessary.

Data set [2] can be described thus: Solid state chemical stability of crystalline salts. The data set is classed as physicochemical.
The nature of data set [3]: Solid state physical stability (form conversion) of crystalline salts. The data set is classed as physicochemical. Particulars: No form conversion after 1 week at 40° C./ambient RH, 40° C./75% RH, and 80° C.
Data set [4] is described as follows: Hygroscopicity of crystalline salts of the compound of Formula Ia. It counts as physicochemical.

Where a name gives a salt, the structure may show the parent alone. Read-outs that look alike come from different tables or passages of the source.

Consider `C[C@@H](O[C@H]1CC[C@@H]([C@H]2C[C@@](C)(N)C(=O)N2)[C@@H]1c1ccc(F)cc1)c1cc(C(F)(F)F)cc(C(F)(F)F)c1` [Besylate Anhydrous Form II], for which the “Thermodynamic stability relative to other crystal form” value in data set [1] is reported as “more thermodynamically stable than Form 1”. The “Solid State Chemical Stability” value in data set [2] was “Stable”. For the same compound, the “Solid State Physical Stability” value in data set [3] was “Stable^3”.
Regarding `C[C@@H](O[C@H]1CC[C@@H]([C@H]2C[C@@](C)(N)C(=O)N2)[C@@H]1c1ccc(F)cc1)c1cc(C(F)(F)F)cc(C(F)(F)F)c1` [Succinate], the “Solid State Physical Stability” value in data set [3] is on record as “Stable”.
`C[C@@H](O[C@H]1CC[C@@H]([C@H]2C[C@@](C)(N)C(=O)N2)[C@@H]1c1ccc(F)cc1)c1cc(C(F)(F)F)cc(C(F)(F)F)c1` (as salt: succinate) (hydrate or solvate): the melting point – broadly, the temperature of the solid-liquid transition – was 187 °C.
On to `C[C@@H](O[C@H]1CC[C@@H]([C@H]2C[C@@](C)(N)C(=O)N2)[C@@H]1c1ccc(F)cc1)c1cc(C(F)(F)F)cc(C(F)(F)F)c1` [Besylate Anhydrous Form I], for which, in data set [1], the “Thermodynamic stability relative to other crystal form” value is “more thermodynamically stable than form II”. Also, the “Solid State Chemical Stability” value in data set [2] is “Stable”; in data set [2] (listed as anhydrous form I), “physically and chemically stable”. Besides, the “Solid State Physical Stability” value is “Stable^3” in data set [3]; “physically and chemically stable” in data set [3] (listed as anhydrous form I). Further, the “Hygroscopicity (25° C.)” value in data set [4] was “consistently non-hygroscopic”.
